In brackets after ≈: the same amount, converted by molar mass.
Key:
Assay type in all cases: cell-based
[1] = system: Bifidobacterium longum subsp. infantis; assay: Minimum Inhibitory Concentration (MIC) assay; conditions: anaerobic, 37° C., 18 h
Protocol: (§1) The bioactivity of macrolide compounds against 4 strains of common gut bacteria (Escherichia coli, Streptococcus salivarius subsp. salivarius, Lactobacillus casei and Bifidobacterium longum subsp. infantis) and common mammalian skin isolate Micrococcus luteus, was assessed using the Minimum Inhibitory Concentration (MIC) assay. Bacterial strains were purchased from DSMZ (Brunswick, Germany) except M. luteus which was obtained from NCIMB, and stored in 20% glycerol at −80° C. Stock solutions (100% DMSO) of positive controls (azithromycin and erythromycin), and of test compounds 1 and 2 were diluted in broth to working stock concentrations of 256 μg/ml (final assay testing concentration range 128 μg/ml to 0.00391 μg/ml). Stock solutions of all other compounds were diluted in broth to working stock concentrations of 128 μg/ml (final assay testing concentration range 64 μg/ml to 0.00195 μg/ml). Bacterial strains were cultivated in appropriate broth in an anaerobic chamber at 37° C., except for M. luteus which was incubated aerobically at 37° C. 18 h cultures were diluted in broth to an OD595 of 0.1 and then further diluted 1:10. In 96-well plates, in duplicate, 200 μl working stock of test compound was transferred to well 1 and serially diluted (1:2) in broth. 100 μl bacterial suspension was aliquoted into each well and mixed thoroughly. Appropriate sterility controls were included and plates were incubated in an anaerobic chamber, or aerobically (M. luteus) at 37° C. for 18 h. The MIC was determined to be the concentration of test compound in the first well with no visible growth.

[2] = system: Micrococcus luteus; assay: Minimum Inhibitory Concentration (MIC) assay; conditions: aerobic, 37° C., 18 h
Protocol: as §1

[3] = system: Escherichia coli; assay: Minimum Inhibitory Concentration (MIC) assay; conditions: anaerobic, 37° C., 18 h
Protocol: as §1

[4] = system: Streptococcus salivarius subsp. salivarius; assay: Minimum Inhibitory Concentration (MIC) assay; conditions: anaerobic, 37° C., 18 h
Protocol: as §1

[5] = system: Lactobacillus casei; assay: Minimum Inhibitory Concentration (MIC) assay; conditions: Lacticaseibacillus casei; anaerobic, 37° C., 18 h
Protocol: as §1

[6] = system: E. coli, S. salivarius, L. casei, B. longum or M. luteus; assay: Direct antibacterial activity, summary over all strains tested; conditions: summary in words of Table 1
Protocol: as §1

[7] = molecular target: T1, human TLR2 (Homo sapiens, UniProt O60603); assay: TLR2 reporter assay (HEK-293-TLR, SEAP); conditions: for TLR2 stimulation: at concentrations up to 20 uM
T1 construct: host or cells: recombinant HEK-293-TLR cell lines
Protocol: Samples and controls were tested in duplicate on recombinant HEK-293-TLR cell lines using a cell reporter assay at Invivogen using their standard assay conditions. These cell lines functionally over-express human TLR2 protein as well as a reporter gene which is a secreted alkaline phosphatase (SEAP). The production of this reporter gene is driven by an NFkB inducible promoter. The TLR reporter cell lines activation results are given as optical density values (OD).
20 μl of each test article were used to stimulate the hTLR2 reporter cell lines in a 200 μl of final reaction volume. Samples were tested in duplicate, with at least two concentrations tested—20 uM and 10 uM.
Compounds were tested using a TLR2 reporter assay (see general methods) that measured for stimulation of the TLR2 receptor. Stimulatory effect was measured as an increase in optical density (OD) due to release of secreted alkaline phosphatase (SEAP) and is shown in table 4: […]

T1 sequence (O60603 21-784): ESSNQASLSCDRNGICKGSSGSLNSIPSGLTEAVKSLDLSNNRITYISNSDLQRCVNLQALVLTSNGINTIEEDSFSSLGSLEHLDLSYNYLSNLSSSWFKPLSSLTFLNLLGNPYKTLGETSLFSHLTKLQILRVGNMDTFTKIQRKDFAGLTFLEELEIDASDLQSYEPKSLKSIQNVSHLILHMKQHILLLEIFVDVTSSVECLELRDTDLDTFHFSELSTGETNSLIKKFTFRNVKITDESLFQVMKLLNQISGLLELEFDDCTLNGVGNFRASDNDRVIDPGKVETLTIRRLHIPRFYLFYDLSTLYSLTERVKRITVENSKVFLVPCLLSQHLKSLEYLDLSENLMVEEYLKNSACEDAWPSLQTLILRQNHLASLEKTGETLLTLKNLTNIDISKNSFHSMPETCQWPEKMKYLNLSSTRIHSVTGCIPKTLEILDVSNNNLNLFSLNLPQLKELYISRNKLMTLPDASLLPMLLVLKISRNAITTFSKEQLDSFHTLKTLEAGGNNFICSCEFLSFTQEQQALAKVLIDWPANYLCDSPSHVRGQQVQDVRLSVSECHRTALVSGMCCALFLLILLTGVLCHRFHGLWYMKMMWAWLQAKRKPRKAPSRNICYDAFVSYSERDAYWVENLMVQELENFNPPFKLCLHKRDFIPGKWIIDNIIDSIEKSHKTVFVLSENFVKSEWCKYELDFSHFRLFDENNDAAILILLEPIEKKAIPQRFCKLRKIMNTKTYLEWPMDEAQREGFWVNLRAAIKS

SMILES	MIC [1]	MIC [2]	MIC [3]	MIC [4]	MIC [5]	antibacterial activity against the bacterial strains tested [6]	OD after addition of 5 μM test article [7]	OD after addition of 10 μM test article [7]	OD after addition of 20 μM test article [7]	TLR2 stimulation [7]	lowest concentration at which TLR2 was stimulated (concentrations down to) [7]
CC[C@H]1OC(=O)[C@H](C)[C@@H](O[C@H]2C[C@@](C)(OC)[C@@H](O)[C@H](C)O2)[C@H](C)[C@@H](O[C@@H]2O[C@H](C)C[C@H](N(C)C)[C@H]2O)[C@](C)(O)C[C@@H](C)CN(C)[C@H](C)[C@@H](O)[C@]1(C)O [Azithromycin, reference compound]	> 64 µg/mL	0.125 µg/mL (≈ 0.167 µM)	< 8 µg/mL	< 0.5 µg/mL	< 1 µg/mL	potent activity against a number of the strains	0.029 OD	0.045 OD	0.031 OD	little or no stimulation	
CC[C@H]1OC(=O)[C@H](C)[C@@H](O[C@H]2CC(N(C)C)[C@H](O)C(C)O2)[C@H](C)[C@@H](O)[C@](C)(O)C[C@@H](C)C(=O)[C@H](C)[C@@H](O)[C@H]1C (stereo partly drawn) [Compound 3]						no antibacterial activity	−0.043 OD	−0.015 OD	−0.026 OD	little or no stimulation	
CC[C@H]1OC(=O)[C@H](C)[C@@H](O[C@H]2CC(N(C)C)[C@H](O)C(C)O2)[C@H](C)[C@@H](O)[C@](C)(O)C[C@@H](C)CN(C)[C@H](C)[C@@H](O)[C@H]1C (stereo partly drawn) [Compound 4]	> 64 µg/mL		> 64 µg/mL	> 64 µg/mL	> 64 µg/mL	no antibacterial activity					
CC1O[C@@H](O[C@H]2[C@H](C)[C@@H](O)[C@](C)(O)C[C@@H](C)C(=O)[C@H](C)[C@@H](O)[C@@H](C)[C@@H](C3CCC3)OC(=O)[C@@H]2C)CC(N(C)C)[C@@H]1O (stereo partly drawn) [Compound 5]	> 64 µg/mL		> 64 µg/mL	> 64 µg/mL	> 64 µg/mL	no antibacterial activity					
CC[C@H]1OC(=O)[C@H](C)[C@@H](O[C@H]2CC(NC)[C@H](O)C(C)O2)[C@H](C)[C@@H](O)[C@](C)(O)C[C@@H](C)C(=O)[C@H](C)[C@@H](O)[C@H]1C (stereo partly drawn) [Compound 6]	> 64 µg/mL		> 64 µg/mL	> 64 µg/mL	> 64 µg/mL	no antibacterial activity					
CC1O[C@@H](O[C@H]2[C@H](C)[C@@H](O)[C@](C)(O)C[C@@H](C)C(=O)[C@H](C)[C@@H](O)[C@@H](C)[C@@H](C)OC(=O)[C@@H]2C)CC(N(C)C)[C@@H]1O (stereo partly drawn) [Compound 8]	> 64 µg/mL		> 64 µg/mL	> 64 µg/mL	> 64 µg/mL	no antibacterial activity					
CC(O)[C@H]1OC(=O)[C@H](C)[C@@H](O[C@H]2C[C@@H](N(C)C)[C@H](O)[C@@H](C)O2)[C@H](C)[C@@H](O)[C@](C)(O)C[C@@H](C)C(=O)[C@H](C)[C@@H](O)[C@H]1C (stereo partly drawn) [Compound 9, 14-hydroxy angolosamine erythronolide B]	> 64 µg/mL		> 64 µg/mL	> 64 µg/mL	> 64 µg/mL	no antibacterial activity					
CC[C@H]1OC(=O)[C@H](C)[C@@H](O[C@H]2CC(N(C)C)[C@H](O)C(C)O2)[C@H](C)[C@@H](O)[C@](C)(O)C[C@@H](C)N(C)C[C@H](C)[C@@H](O)[C@]1(C)O (stereo partly drawn) [Compound 17]							0.054 OD	0.155 OD	0.234 OD		10 µM
CC[C@H]1OC(=O)[C@H](C)[C@@H](O[C@H]2C[C@@](C)(OC)[C@@H](O)[C@H](C)O2)[C@H](C)[C@@H](O[C@@H]2O[C@H](C)C[C@H](N(C)C)[C@H]2O)[C@](C)(O)C[C@@H](C)C(=O)[C@H](C)[C@@H](O)[C@]1(C)O [Erythromycin, reference compound]	> 64 µg/mL	< 0.0625 µg/mL	> 64 µg/mL	< 0.06 µg/mL	< 0.25 µg/mL	potent activity against a number of the strains	0.035 OD	0.065 OD	0.045 OD	little or no stimulation	
